From US20220280493A1 (priority 2021, published 2022)

Experiments:
[1] = tested on: "Long-Haul" Covid-19; experiment: Treatment of "Long-Haul" Covid-19 symptoms in the same patient; assay type: in vivo, human; conditions: for effect of added direct intranasal/lung inhalation: 0.1 ml of the 6% solution, 1-2 times/day
Protocol: After patient had discontinued treatment above for several weeks after the first round of disease, subsequent putative recurrent post-acute (“long-haul”) symptoms of Covid-19. These included malaise, fatigue, brain fog, myalgia and musculoskeletal pain, and shortness of breath. […] Treatment was titrated to a clinical response, with a maximum dose of 200 mg/day of Tempol. […] At two such interludes, in place of the Tempol, patient took 100 mg of phenylbutylnitrone (PBN).

[2] = tested on: Covid-19, Omicron strain; experiment: Treatment of "Break-Thru" Covid-19 infection in the same patient; assay type: in vivo, human
[3] = tested on: nonrespiratory coronavirus unrelated to SARS-CoV-2; conditions: induced by a nonrespiratory coronavirus; cited from earlier work

Row | SMILES | long-haul symptoms, oral treatment in place of Tempol ([1]; 100 mg, at two interludes) | long-haul symptoms, nasal/pulmonary inhalation ([1]; 0.1 ml of a 5% solution in water 3-4 times per day) | alleviation of upper respiratory symptoms, alternative intranasal treatments ([2]; intranasal 3% gel (Q-tip) or insufflation of 0.2 ml of 3% solution, compared with 6% Tempol spray) | effect of added direct intranasal/lung inhalation [1] | response of long-haul symptoms (malaise, fatigue, brain fog, myalgia and musculoskeletal pain, shortness of breath) ([1]; human, in vivo) | symptoms on withdrawal and repeat treatment ([1]; treatment withdrawn, then repeated) | time to alleviation of upper respiratory tract congestion ([2]; inhalation of 20 mg, one 0.1 ml spritz of the 6% solution per nostril, followed by insufflation) [min] | murine viral encephalomyelitis [3]
1 | CC(C)(C)[N+]([O-])=Cc1ccccc1 [PBN, 1-alpha-phenyl-tert-butyl nitrone] | some subjective clearing of symptoms | significant symptomatic relief | effective but the response was slower |  |  |  |  | 
2 | CC1(C)CC(O)CC(C)(C)N1[O] [Tempol, 4-hydroxy-TEMPO] |  |  |  | proved helpful | responded reversibly | Symptoms returned when the treatment was withdrawn, but responded to repeat treatment | 5 to 10 | ameliorates
3 | CC1(C)CC(O)CC(C)(C)N1O [Tempol-H, the hydroxylamine reduced form of the nitroxide 4-hydroxy-2,2,6,6-tetramethylpiperidin-1-yloxy] |  |  |  | proved helpful |  |  |  | 
